Laboratory results as given in patent US11690828B2, “Treatment of CNS diseases with sGC stimulators” (Cyclerion Therapeutics, Inc., priority 2016, dated 2023).

Assays:
[1] = Rat cerebrospinal fluid (CSF) pharmacokinetic properties; format: in vivo; settings: male, Sprague-Dawley; for concentration at 1 h: CSF, PO 10 mg/kg in PEG400, 1 h post-dosing, read-out: CSF Conc (nM @ 1 h); for Kp uu at 1 h: PO 10 mg/kg, unbound CSF / unbound plasma
Description: PK in rats was determined following oral dosing. For the oral (PO) experiments, a group of 6 male Sprague-Dawley rats with an indwelling catheter placed in the cisterna magna were used. The PO group was dosed with 3 or 10 mg/kg of a compound formulated as a solution in PEG400. PO doses were administered by oral gavage and delivered to the stomach using a syringe and gavage tube. Following oral dosage administration, the gavage tube was flushed with approximately 0.5 mL of water to ensure complete delivery of the full dose.
Plasma and CSF samples were collected as follows: samples of CSF and blood were collected at 1 hour and 2 hours post-dosing. CSF samples (0.05 mL) were collected through the intracisternal catheter. Blood samples (0.25 mL) were collected through retro-orbital sampling. These samples were kept on ice until processed for plasma. Blood samples were centrifuged at 3200 rpm for 5 minutes at approximately 5° C. within 1 hour of collection. Plasma was directly transferred to a 96-well plate tube (0.125 mL). Plug caps were placed on the tubes and the tubes frozen at approximately −70° C. and stored until analysis.
Plasma was collected and analyzed for the presence of compound.
The compound in question and the internal standard were extracted from plasma and CSF by precipitation. Samples were analyzed using liquid chromatography (LC) with tandem mass spectrometric detection (MS/MS) using electrospray ionization. The standard curve range was from 1 to 1000 ng/mL.
Kp,uu is defined as the concentration ratio of unbound drug in CSF to unbound drug in plasma. Unbound drug in plasma (or free plasma concentration) is calculated by multiplying the total plasma concentration by the unbound fraction as determined by plasma protein binding. The CSF concentration is then divided by the free plasma concentration to determine the Kp,uu. (See e.g., Di et al., J. Med. Chem., 56, 2-12 (2013)).

[2] = tested on: sGC; assay: cGMP neuronal cell-based assay; settings: rat primary hippocampal neurons; 30 μM DETA-NO; 50% of high control (10 μM Compound Y); read-out: sGC-neuron Abs EC50
Description: Rat primary neurons were isolated from fetuses of 18-day pregnant Sprague-Dawley females. The fetuses were collected in Hanks' balanced salt solution (HBSS) and brains were rapidly removed. The cerebral hippocampi were isolated and mechanically fragmented. Further tissue digestion was performed with 0.25% (wt/vol) trypsin solution in HBSS without Ca2+ and Mg2+ for 15 min at 37° C. After trypsination, cells were washed and resuspended in neurobasal medium supplemented with 0.5 mM L-glutamine, 12.5 uM glutamic acid, 2% B-27 and 100 U/mL penicillin, and 100 μg/mL streptomycin. Cells were plated at a density of 4×10^4 cells/well in a poly-D-lysine coated 384-well flat clear-bottom plate (Corning Cat No 354662). Cells were incubated 6-7 days at 37° C. in a humidified chamber with 5% CO2. Media was removed and cells were washed 1× with HBSS containing Ca2+ and Mg2+, and replaced with 40 uL HBSS containing 0.5 mM IBMX, and incubated for 15 minutes at 37° C. 10 uL of a 5× stock of test compounds with diethylenetriamine NONOate (DETA-NO) was added. Final concentration of DETA-NO was 30 μM. Cells were incubated for 20 min at 37° C. Medium was removed, 50 uL of ice-cold 10% acetic acid was added, and incubated for 60 minutes at 4° C. Following centrifugation at 4° C. for 5 minutes at 1000×g to pellet cell debris, the supernatant was aspirated to a clean plate and the samples were analyzed for cGMP content. cGMP concentrations were determined from each sample using LC-MS/MS.
Data were normalized to a high control using the following equation: 100*(Sample−Low Control)/(High Control−Low Control), where the low control is the average of 15 samples treated with 1% DMSO, and the high control is the average of 15 samples treated with 10 μM of the known sGC stimulator Compound Y (depicted in Example 2). Data were fit using a 4-parameter fit (log(agonist) vs. response—variable slope) using GraphPad Prism Software v.5. n=2 for all compounds. […]

[3] = tested on: rats; assay: Bennett model - paw pressure test; format: in vivo, rat; settings: Compound I-2 p.o. 10 mg/kg; 120 minutes after treatment
Description: Paw Pressure Test. Static mechanical hyperalgesia is measured. This test requires the application of an increasing pressure on the hind paws between a flat surface and a blunt pointer. To evaluate the analgesic action of a compound, one hind paw of the animal was inflamed by an injection or injured by ligation, while the other hind paw was not injured or inflamed. The apparatus exerted a steadily increasing force on the hind paws. The reaction threshold was determined as the pressure (g) required to elicit paw withdrawal and/or vocalization. The animals were gently handled by the experimenter and static mechanical hyperalgesia were assessed two times for both hind paws.
Bennett Model. Peripheral mononeuropathy was induced by loose ligation of the sciatic nerve in anesthetized rats (Xylazine 10 mg/kg i.p., ketamine 60 mg/kg i.p.) on D−14. Briefly, the common sciatic nerve was exposed at the level of the middle of the thigh by blunt dissection through the biceps femoris. Proximal to the sciatic trifurcation, four ligatures were loosely tied around it with about 1-mm spacing. […]
Testing: 120 minutes after treatment. […] Results are expressed for each group as a percentage of activity calculated from the mean value of the vehicle-treated animals and compared to naïve animals, control paw, or cut-off value, depending on the test.

[4] = tested on: rats; assay: Brennan model - electronic Von Frey test; format: in vivo, rat; settings: Compound I-2 p.o. 10 mg/kg; 120 minutes after treatment
Source text: Brennan Model. Surgery: Surgery was done under gas anesthesia (2.5% isoflurane/3 L/min). For all rats, the plantar aspect of the left hind paw was exposed and a 1 cm longitudinal incision was made using a surgical blade, through the skin and fascia of the plantar aspect of the foot, starting 0.5 cm from the proximal edge of the heel and extending toward the toes. The plantaris muscle was elevated and incised longitudinally whereas the insertions remained intact. After hemostasis with gentle pressure, the skin was stitched up with two sutures. After surgery, animals recovered in their cages.
Electronic Von Frey Test. Tactile allodynia was assessed using the electronic Von Frey test 24 h after surgery. The test requires the application of an increasing pressure onto the plantar aspect of the hind paws. The apparatus exerted a steady force on the hind paws. Reaction thresholds were determined as the pressure (g) required to elicit paw withdrawal. Each reaction threshold measurement was repeated three times for both hind paws with intervals of approximately 2 to 3 mins.
(§1) Testing: 120 minutes after treatment. N=4/model/test. Results are expressed for each group as a percentage of activity calculated from the mean value of the vehicle-treated animals and compared to naïve animals, control paw, or cut-off value, depending on the test.

[5] = tested on: rats; assay: Acetic acid test - abdominal cramps; format: in vivo, rat; settings: Compound I-2 p.o. 10 mg/kg; 120 minutes after treatment
Description: Acetic Acid Test. Abdominal contraction was induced by intraperitoneal injection of 0.6% acetic acid solution in rats (10 mL/kg). The number of writhing (a twisting or contorting of the body due to pain) was recorded from the 5th to the 15th minute after injection.
as §1

## Fc1ccccc1Cn1nc(-c2nc(C(F)(F)F)n[nH]2)c2cccnc21 [Compound I-2]
[1]
  concentration at 1 h: 62.9 nM
  Kp uu at 1 h: 3.16
[2]
  EC50: ≤ 100 nM
[3]
  % of activity vs. vehicle, Bennett model paw pressure test: 65%
[4]
  % of activity vs. vehicle, Brennan model electronic Von Frey test: 16%
[5]
  % of activity vs. vehicle, acetic acid test abdominal cramps: 59%

## FC(F)(F)c1n[nH]c(-c2nc(Cc3cncnc3)c3ccccn23)n1 [Compound I-5]
[1]
  concentration at 1 h: 446 nM
  Kp uu at 1 h: 3.26
[2]
  EC50: ≤ 100 nM
